Results published in the NIST ThermoML archive (doi:10.1021/je8008254).
Numbers after ± are expanded uncertainties.

What was measured:
[1] = xn = mol fraction of the nth substance listed; conditions: 101 kPa, Liquid
[2] = 101 kPa, Liquid

CCCCn1cc[n+](C)c1.N#C[S-] [1-butyl-3-methylimidazolium thiocyanate] + CO
[1]
Conditions	mass density, 298.15 K [kg/m3]	mass density, 308.15 K [kg/m3]	mass density, 318.15 K [kg/m3]	mass density, 328.15 K [kg/m3]	viscosity, 298.15 K [mPa·s]	viscosity, 308.15 K [mPa·s]	viscosity, 318.15 K [mPa·s]	viscosity, 328.15 K [mPa·s]
x1 = 0.0154	810 ± 1.3	800.87 ± 1.3	791.7 ± 1.4	782.41 ± 1.4	0.665 ± 0.035	0.593 ± 0.032	0.536 ± 0.029	0.49 ± 0.027
x1 = 0.0531	854.66 ± 1.1	846.16 ± 1.1	837.63 ± 1.1	829.05 ± 1.2	0.871 ± 0.044	0.765 ± 0.039	0.681 ± 0.036	0.613 ± 0.033
x1 = 0.0964	892.65 ± 0.9	884.64 ± 0.94	876.63 ± 0.98	868.59 ± 1	1.18 ± 0.06	1.02 ± 0.05	0.892 ± 0.045	0.792 ± 0.04
x1 = 0.1443	924.63 ± 0.77	917.04 ± 0.8	909.43 ± 0.84	901.81 ± 0.87	1.62 ± 0.08	1.39 ± 0.07	1.2 ± 0.06	1.06 ± 0.05
x1 = 0.2076	954.94 ± 0.65	947.69 ± 0.68	940.47 ± 0.71	933.23 ± 0.75	2.34 ± 0.11	1.96 ± 0.09	1.67 ± 0.08	1.45 ± 0.07
x1 = 0.3602	1001.45 ± 0.53	994.74 ± 0.54	988.06 ± 0.57	981.43 ± 0.61	5.15 ± 0.23	4.13 ± 0.19	3.33 ± 0.15	2.82 ± 0.13
x1 = 0.5083	1028.1 ± 0.77	1021.68 ± 0.74	1015.3 ± 0.7	1008.99 ± 0.67	9.75 ± 0.39	7.55 ± 0.31	6.03 ± 0.26	4.85 ± 0.22
x1 = 0.6227	1041.88 ± 0.95	1035.64 ± 0.91	1029.43 ± 0.88	1023.26 ± 0.85	14.5 ± 0.6	10.8 ± 0.4	8.4 ± 0.35	6.68 ± 0.28
x1 = 0.7114	1050.29 ± 1.1	1044.13 ± 1.1	1038.01 ± 1	1031.94 ± 0.99	19.4 ± 0.7	14.1 ± 0.6	10.7 ± 0.4	8.4 ± 0.35
x1 = 0.8006	1057.46 ± 1.2	1051.39 ± 1.2	1045.36 ± 1.2	1039.38 ± 1.1	25.4 ± 1	18 ± 0.7	13.4 ± 0.5	10.32 ± 0.42
x1 = 0.9046	1064.23 ± 1.4	1058.22 ± 1.4	1052.27 ± 1.4	1046.37 ± 1.3	34.1 ± 1.3	23.3 ± 0.9	16.9 ± 0.7	12.78 ± 0.51
x1 = 1	1069.79 ± 1.6	1063.89 ± 1.6	1058.02 ± 1.6	1052.19 ± 1.5	51.7 ± 1.2	34.9 ± 1.3	24.2 ± 0.9	16.7 ± 0.7

CCO [ethanol]
[2]
Conditions	mass density [kg/m3]	viscosity [mPa·s]
298.15 K	785.17 ± 1.4	1.09 ± 0.05
308.15 K	776.49 ± 1.4	0.912 ± 0.046
318.15 K	767.67 ± 1.5	0.774 ± 0.04
328.15 K	758.65 ± 1.5	0.664 ± 0.035
338.15 K	749.35 ± 1.6	0.589 ± 0.032
348.15 K	739.75 ± 1.6	0.512 ± 0.028

CCO [ethanol] + CCCCn1cc[n+](C)c1.N#C[S-]
[1], x2 = 0
Conditions	mass density [kg/m3]	viscosity [mPa·s]
298.15 K	785.17 ± 1.4	1.09 ± 0.05
308.15 K	776.49 ± 1.4	0.912 ± 0.046
318.15 K	767.67 ± 1.5	0.774 ± 0.04
328.15 K	758.65 ± 1.5	0.664 ± 0.035
338.15 K	749.35 ± 1.6	0.589 ± 0.032
348.15 K	739.75 ± 1.6	0.512 ± 0.028

CO [methanol]
[2]
Conditions	mass density [kg/m3]	viscosity [mPa·s]
298.15 K	786.64 ± 1.4	0.577 ± 0.031
308.15 K	777.15 ± 1.4	0.525 ± 0.029
318.15 K	767.59 ± 1.5	0.481 ± 0.027
328.15 K	757.83 ± 1.5	0.443 ± 0.025

CO [methanol] + CCCCn1cc[n+](C)c1.N#C[S-]
[1], x2 = 0
Conditions	mass density [kg/m3]	viscosity [mPa·s]
298.15 K	786.64 ± 1.4	0.577 ± 0.031
308.15 K	777.15 ± 1.4	0.525 ± 0.029
318.15 K	767.59 ± 1.5	0.481 ± 0.027
328.15 K	757.83 ± 1.5	0.443 ± 0.025

CCCO [propan-1-ol]
[2]
Conditions	mass density [kg/m3]	viscosity [mPa·s]
298.15 K	799.52 ± 1.3	1.94 ± 0.09
308.15 K	791.41 ± 1.4	1.54 ± 0.07
318.15 K	783.15 ± 1.4	1.24 ± 0.06
328.15 K	774.66 ± 1.4	1.02 ± 0.05
338.15 K	765.91 ± 1.5	0.842 ± 0.043
348.15 K	756.84 ± 1.5	0.71 ± 0.037

CCCO [propan-1-ol] + CCCCn1cc[n+](C)c1.N#C[S-]
[1], x2 = 0
Conditions	mass density [kg/m3]	viscosity [mPa·s]
298.15 K	799.52 ± 1.3	1.94 ± 0.09
308.15 K	791.41 ± 1.4	1.54 ± 0.07
318.15 K	783.15 ± 1.4	1.24 ± 0.06
328.15 K	774.66 ± 1.4	1.02 ± 0.05
338.15 K	765.91 ± 1.5	0.842 ± 0.043
348.15 K	756.84 ± 1.5	0.71 ± 0.037
